Substitutions are numbered along the chain they refer to.
Columns and labels:
VCaP xenograft tumors = test: Post-castration relapsed VCaP xenograft tumors (model of CRPC); assay type: in vivo
Description: FIG. 17. Compound A89 maintains activity in vivo and is efficacious in a CRPC xenograft model. (a) Morphological changes in seminal vesicles of intact adult male mice following treatment with DMSO vehicle, Bic (0.5 mg/day) or A89 (mg/day as indicated) for 7 days. (b) H&E stained cross-sections of prostate ductal epithelium from above mice treated with DMSO, Bic, or A89 (10 mg/day). (c) AR and Ki-67 staining in pre- and post-castration relapsed VCaP xenograft tumor sections following treatment with A89 (5 mg/day) or Bic (0.5 mg/day) for 7 days. (d) mRNA levels of AR and AR-target genes in post-castration relapsed VCaP xenograft tumors following treatment with A89 (5 mg/day) for 7 days. Error bars represent S.E.M.
To evaluate the activity of the chemotype A compounds in vivo we first treated adult male mice with compound A89 in a dose ranging experiment from 0.5 mg/day to 10 mg/day via intraperitoneal injection for 7 days. […] We next evaluated A89 in VCaP xenograft tumors that had relapsed following an initial response to castration, which is a model of CRPC.

AR in VCaP cells = molecular target: T1, AR in VCaP cells (Homo sapiens, UniProt P10275); test: Nuclear AR, total AR protein and PSA expression in VCaP cells in steroid depleted medium; assay type: cell-based
T1 construct: endogenous in cells; host or cells: VCaP
T1 sequence (P10275 1-920): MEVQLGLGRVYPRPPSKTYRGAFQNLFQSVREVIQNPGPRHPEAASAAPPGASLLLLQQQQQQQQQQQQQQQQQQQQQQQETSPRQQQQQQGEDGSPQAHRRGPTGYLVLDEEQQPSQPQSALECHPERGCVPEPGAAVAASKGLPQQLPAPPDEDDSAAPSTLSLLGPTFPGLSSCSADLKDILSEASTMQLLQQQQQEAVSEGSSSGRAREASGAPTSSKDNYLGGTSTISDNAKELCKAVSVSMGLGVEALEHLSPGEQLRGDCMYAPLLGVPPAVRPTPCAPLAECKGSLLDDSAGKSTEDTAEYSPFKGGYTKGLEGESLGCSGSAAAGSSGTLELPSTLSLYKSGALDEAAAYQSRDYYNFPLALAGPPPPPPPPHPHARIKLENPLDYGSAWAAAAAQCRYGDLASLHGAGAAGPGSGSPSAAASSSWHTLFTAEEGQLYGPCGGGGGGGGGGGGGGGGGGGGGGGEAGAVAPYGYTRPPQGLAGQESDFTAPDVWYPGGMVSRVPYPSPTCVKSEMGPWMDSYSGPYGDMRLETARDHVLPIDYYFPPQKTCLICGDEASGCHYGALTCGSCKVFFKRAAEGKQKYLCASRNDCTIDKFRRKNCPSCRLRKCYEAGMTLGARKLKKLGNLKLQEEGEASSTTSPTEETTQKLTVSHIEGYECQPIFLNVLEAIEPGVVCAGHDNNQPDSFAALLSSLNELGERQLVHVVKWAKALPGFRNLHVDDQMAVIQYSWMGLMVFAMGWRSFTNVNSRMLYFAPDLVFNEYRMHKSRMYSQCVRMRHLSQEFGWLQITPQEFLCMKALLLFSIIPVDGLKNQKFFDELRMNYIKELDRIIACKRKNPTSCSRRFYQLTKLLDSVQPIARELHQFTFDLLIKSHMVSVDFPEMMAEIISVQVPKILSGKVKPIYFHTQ
Text: VCaP cells, derived from a CRPC vertebral metastasis, express substantial levels of AR and AR regulated genes such as PSA even when cultured in steroid depleted medium. […] In additional studies focused on chemotype A compounds, we used immunofluorescence to assess AR nuclear localization. […] In contrast, and consistent with the biochemical fractionation studies noted above, basal nuclear AR was decreased by A61.
We used the NE-PER Nuclear and Cytoplasmic Extraction Reagents (Pierce 78833).

AR in C4-2 cells = molecular target: T2, AR in C4-2 cells (Homo sapiens, UniProt P10275, T878A)
T2 sequence (P10275 1-920 T878A): T1 sequence (P10275 1-920) with T878A

[1] = steroid depleted medium, data not shown
[2] = steroid depleted medium, dose response

expression of androgen regulated genes (TMPRSS2, ERG, PSA mRNA) (VCaP xenograft tumors; biopsies pre- and post treatment, A89 5 mg/day for 7 days): significant decrease
nuclear AR (AR in VCaP cells; 10 μM, steroid depleted medium): significantly decreased nuclear AR
DHT stimulated PSA expression (AR in VCaP cells; not shown): blocking DHT stimulated PSA expression
basal PSA (AR in C4-2 cells; 24 hours (FIG. 10a)): decrease in basal PSA
total AR protein levels (AR in C4-2 cells; 24 hours (FIG. 10a)): noteworthy decrease
PSA expression (AR in C4-2 cells; [1]): reduced
nuclear AR levels (AR in C4-2 cells; [1]): reduced nuclear AR levels
AR protein (AR in C4-2 cells; [2]): dose dependent decrease
PSA levels (AR in C4-2 cells; [2]): dose dependent decrease
Structure (SMILES): CCOc1cc(F)c(S(=O)(=O)NCc2ccc3c(c2)OCO3)cc1F [Compound A89, N-(1,3-benzodioxol-5-ylmethyl)-4-ethoxy-2,5-difluorobenzenesulfonamide]
tumor cell proliferation (Ki-67 staining) (VCaP xenograft tumors; A89 5 mg/day for 7 days): decreased tumor cell proliferation
nuclear AR expression / staining in tumor (VCaP xenograft tumors; A89 5 mg/day or Bic 0.5 mg/day for 7 days): substantially decreased
basal level PSA expression (AR in VCaP cells; 10 μM, steroid depleted medium): further decreasing basal level PSA expression
decrease in AR protein in the presence of proteasome inhibitor (AR in C4-2 cells; proteasome inhibitors (MG115 and MG132)): blocked in the presence of a proteasome inhibitor

Source: patent US20140088187A1, “ANDROGEN RECEPTOR INHIBITORS AND METHODS OF USE THEREOF” (BETH ISRAEL DEACONESS MEDICAL CENTER, priority 2010, published 2014)
